In ChEMBL document CHEMBL4359837, “Discovery of 2-(4-Chloro-3-(trifluoromethyl)phenyl)-N-(4-((6,7-dimethoxyquinolin-4-yl)oxy)phenyl)acetamide (CHMFL-KIT-64) as a Novel Orally Available Potent Inhibitor against Broad-Spectrum Mutants of c-KIT Kinase for Gastrointestinal Stromal Tumors” (J Med Chem, 2019):
Blank lines part the entries; values can stand above or below the compound they belong to. Activity calls are given as the source filed them. The rule behind the calls is not given here.

How the values were obtained:
Mus musculus [1] = species: Mus musculus; test: Inhibition of c-KIT D816E mutant in mouse BAF3(transformed) cells assessed as growth inhibition after 72 hrs by CCK8 assay
[2] = tested on: Mast/stem cell growth factor receptor Kit (Homo sapiens), P10721 [A829P]; conditions: Mus musculus
Description: Inhibition of c-KIT A829P mutant in mouse BAF3(transformed) cells assessed as growth inhibition after 72 hrs by CCK8 assay

[3] = tested on: Mast/stem cell growth factor receptor Kit (Homo sapiens), P10721 [V559D]; conditions: Mus musculus
Description: Inhibition of c-KIT V559D mutant in mouse BAF3(transformed) cells assessed as growth inhibition after 72 hrs by CCK8 assay

[4] = tested on: Mast/stem cell growth factor receptor Kit (Homo sapiens), P10721 [UNDEFINED MUTATION]; conditions: 0.1 uM
Description: Inhibition of c-KIT 560 to 578 deletion/T670I mutant in human GIST5R cells assessed as reduction in c-KIT autophosphorylation at Y703 residue at 0.1 uM measured after 2 hrs by Western blot analysis

Mus musculus [5] = species: Mus musculus; test: Inhibition of c-KIT T670E mutant in mouse BAF3(transformed) cells assessed as growth inhibition after 72 hrs by CCK8 assay
Mus musculus [6] = species: Mus musculus; test: Inhibition of c-KIT S709F mutant in mouse BAF3(transformed) cells assessed as growth inhibition after 72 hrs by CCK8 assay
[7] = Growth inhibition of human GIST48B cells after 72 hrs by CCK8 assay; type: functional
[8] = target: RAC-alpha serine/threonine-protein kinase (Homo sapiens) (UniProt P31749); conditions: GISTT1, 0.1 uM
Description: Inhibition of AKT autophosphorylation at T308 residue in human GISTT1 cells harboring c-KIT 560 to 578 deletion mutant at 0.1 uM measured after 2 hrs by Western blot analysis

Mus musculus [9] = species: Mus musculus; test: Inhibition of c-KIT V654A/V559D double mutant in mouse BAF3(transformed) cells assessed as growth inhibition after 72 hrs by CCK8 assay
[10] = tested on: Mast/stem cell growth factor receptor Kit (Homo sapiens), P10721 [D820E]; conditions: Mus musculus
Description: Inhibition of c-KIT D820E mutant in mouse BAF3(transformed) cells assessed as growth inhibition after 72 hrs by CCK8 assay

[11] = tested on: Mast/stem cell growth factor receptor Kit (Homo sapiens), P10721 [D820Y]; conditions: Mus musculus
Description: Inhibition of c-KIT D820Y mutant in mouse BAF3(transformed) cells assessed as growth inhibition after 72 hrs by CCK8 assay

[12] = Growth inhibition of mouse BAF3 cells measured after 72 hrs by CCK8 assay; type: cell-based
GISTT1 [13] = type: functional, Homo sapiens; conditions: for inhibition in vivo at 20 mg/kg/day: Mus musculus, GISTT1, po, 672 h, read-out: TGI
[14] = target: Mast/stem cell growth factor receptor Kit (Mus musculus) (UniProt P05532); test: Inhibition of c-KIT in mouse BAF3(transformed) cells assessed as growth inhibition after 72 hrs by CCK8 assay
[15] = tested on: Mast/stem cell growth factor receptor Kit (Homo sapiens), P10721 [D816V]; conditions: Mus musculus
Description: Inhibition of c-KIT D816V mutant in mouse BAF3(transformed) cells assessed as growth inhibition after 72 hrs by CCK8 assay

Mus musculus [16] = species: Mus musculus; test: Inhibition of c-KIT D820G mutant in mouse BAF3(transformed) cells assessed as growth inhibition after 72 hrs by CCK8 assay
[17] = tested on: Mast/stem cell growth factor receptor Kit (Homo sapiens), P10721 [UNDEFINED MUTATION]; conditions: GISTT1, 0.1 uM
Description: Inhibition of c-KIT 560 to 578 deletion/T670I mutant in human GISTT1 cells assessed as reduction in AKT phosphorylation at S473 residue at 0.1 uM measured after 2 hrs by Western blot analysis

[18] = tested on: Mast/stem cell growth factor receptor Kit (Homo sapiens), P10721 [D816H]; conditions: Mus musculus
Description: Inhibition of c-KIT D816H mutant in mouse BAF3(transformed) cells assessed as growth inhibition after 72 hrs by CCK8 assay

[19] = tested on: Mast/stem cell growth factor receptor Kit (Homo sapiens), P10721 [UNDEFINED MUTATION]; conditions: 0.1 uM; remark: listed apart in the source
Description: Inhibition of c-KIT 560 to 578 deletion/T670I mutant in human GIST5R assessed as reduction in ERK phosphorylation at T204 residue at 0.1 uM measured after 2 hrs by Western blot analysis

Mus musculus [20] = species: Mus musculus; test: Inhibition of c-KIT T670I/V559D double mutant in mouse BAF3(transformed) cells assessed as growth inhibition after 72 hrs by CCK8 assay
[21] = tested on: Mast/stem cell growth factor receptor Kit (Homo sapiens), P10721 [UNDEFINED MUTATION]; conditions: GISTT1, 0.1 uM; remark: listed apart in the source
Description: Inhibition of c-KIT 560 to 578 deletion/T670I mutant in human GISTT1 cells assessed as reduction in AKT phosphorylation at T308 residue at 0.1 uM measured after 2 hrs by Western blot analysis

[22] = Antitumor activity against mouse BAF3(transformed) cells harboring c-KIT T670I mutant implanted in BALB/c nu mouse assessed as tumor growth inhibition at 40 mg/kg/day, po administered via gavage for 11 days relative to control; type: functional; conditions: 264 h, read-out: TGI
GISTT1 [23] = type: functional
[24] = target: T1, Mast/stem cell growth factor receptor Kit (Homo sapiens, UniProt P10721, 560-578DEL/T670I); type: cell-based, GISTT1
[25] = target: T1, Mast/stem cell growth factor receptor Kit
[26] = Oral bioavailability in Sprague-Dawley rat at 10 mg/kg by LC-MS/MS analysis; type: ADME, organism-based; conditions: in vivo
[27] = Cmax in mouse at 10 mg/kg, po by LC-MS/MS analysis; type: ADME, organism-based; design: dose 10 mg/kg, route oral; conditions: in vivo
[28] = target: T2, Mast/stem cell growth factor receptor Kit (Homo sapiens, UniProt P10721, 560-578DEL); type: cell-based, GISTT1
[29] = target: T1, Mast/stem cell growth factor receptor Kit; remark: listed apart in the source
[30] = target: T2, Mast/stem cell growth factor receptor Kit; type: cell-based, GISTT1; remark: listed apart in the source
GISTT1 [31] = type: functional, cell-based; conditions: Homo sapiens
[32] = Antitumor activity against mouse BAF3(transformed) cells harboring c-KIT D820G mutant implanted in BALB/c nu mouse assessed as tumor growth inhibition at 80 mg/kg/day, po administered via gavage for 9 days relative to control; type: functional; conditions: 216 h, read-out: TGI
[33] = Inhibition of recombinant human GST-tagged FLT4 cytoplasmic domain Q890H/V1128L/H1146R mutant (800 to 1297 residues) expressed in baculovirus expression system by Z-lyte assay
Mus musculus [34] = type: functional, organism-based; conditions: BALB/c, 80 mg/kg, TDE = time-dependent effect
[35] = target: T1, Mast/stem cell growth factor receptor Kit; type: cell-based
Homo sapiens = type: functional, cell-based
[36] = target: RAC-alpha serine/threonine-protein kinase (Homo sapiens) (UniProt P31749); type: cell-based; conditions: GISTT1
[37] = tested on: Mast/stem cell growth factor receptor Kit (Homo sapiens), P10721 [UNDEFINED MUTATION]
Description: Inhibition of c-KIT 560 to 578 deletion/T670I mutant in human GIST5R cells assessed as growth inhibition after 72 hrs by CCK8 assay

[38] = tested on: Mast/stem cell growth factor receptor Kit (Homo sapiens), P10721 [V560D]; conditions: Mus musculus
[39] = target: T2, Mast/stem cell growth factor receptor Kit; type: cell-based, GISTT1; remark: listed apart in the source
Mus musculus [40] = type: functional, organism-based; conditions: BALB/c, 80 mg/kg
[41] = target: T2, Mast/stem cell growth factor receptor Kit; type: cell-based, GISTT1; remark: listed apart in the source
[42] = target: Epithelial discoidin domain-containing receptor 1 (Mus musculus) (UniProt Q03146); test: Inhibition of DDR1 in mouse BAF3(transformed) cells assessed as growth inhibition after 72 hrs by CCK8 assay
Mus musculus [43] = type: functional, organism-based; conditions: BALB/c, 80 mg/kg; remark: listed apart in the source
[44] = Antitumor activity against mouse BAF3(transformed) cells harboring c-KIT Y823D mutant implanted in BALB/c nu mouse assessed as tumor weight at 80 mg/kg/day, po administered via gavage for 9 days (reference value: 0.96 g); type: functional
Mus musculus [45] = type: functional, organism-based; conditions: BALB/c, 80 mg/kg; remark: listed apart in the source
[46] = target: Mast/stem cell growth factor receptor Kit (Homo sapiens, UniProt P10721, T670I/V559D); test: Inhibition of human N-terminal GST-tagged KIT V559D/T670I double mutant (544 to end residues) expressed in baculovirus infected Sf9 insect cells by Lanthascreen Eu-binding method
[47] = Tmax in Sprague-Dawley rat at 1 mg/kg, iv by LC-MS/MS analysis; type: ADME, organism-based; conditions: in vivo
[48] = target: T2, Mast/stem cell growth factor receptor Kit; type: cell-based, GISTT1; remark: listed apart in the source
Mus musculus [49] = test: Antitumor activity against mouse BAF3(transformed) cells harboring c-KIT D820G mutant implanted in BALB/c nu mouse assessed as tumor growth inhibition administered via oral gavage for 9 days; type: functional

T2 sequence (P10721 whole entry, looked up, stated change not applied): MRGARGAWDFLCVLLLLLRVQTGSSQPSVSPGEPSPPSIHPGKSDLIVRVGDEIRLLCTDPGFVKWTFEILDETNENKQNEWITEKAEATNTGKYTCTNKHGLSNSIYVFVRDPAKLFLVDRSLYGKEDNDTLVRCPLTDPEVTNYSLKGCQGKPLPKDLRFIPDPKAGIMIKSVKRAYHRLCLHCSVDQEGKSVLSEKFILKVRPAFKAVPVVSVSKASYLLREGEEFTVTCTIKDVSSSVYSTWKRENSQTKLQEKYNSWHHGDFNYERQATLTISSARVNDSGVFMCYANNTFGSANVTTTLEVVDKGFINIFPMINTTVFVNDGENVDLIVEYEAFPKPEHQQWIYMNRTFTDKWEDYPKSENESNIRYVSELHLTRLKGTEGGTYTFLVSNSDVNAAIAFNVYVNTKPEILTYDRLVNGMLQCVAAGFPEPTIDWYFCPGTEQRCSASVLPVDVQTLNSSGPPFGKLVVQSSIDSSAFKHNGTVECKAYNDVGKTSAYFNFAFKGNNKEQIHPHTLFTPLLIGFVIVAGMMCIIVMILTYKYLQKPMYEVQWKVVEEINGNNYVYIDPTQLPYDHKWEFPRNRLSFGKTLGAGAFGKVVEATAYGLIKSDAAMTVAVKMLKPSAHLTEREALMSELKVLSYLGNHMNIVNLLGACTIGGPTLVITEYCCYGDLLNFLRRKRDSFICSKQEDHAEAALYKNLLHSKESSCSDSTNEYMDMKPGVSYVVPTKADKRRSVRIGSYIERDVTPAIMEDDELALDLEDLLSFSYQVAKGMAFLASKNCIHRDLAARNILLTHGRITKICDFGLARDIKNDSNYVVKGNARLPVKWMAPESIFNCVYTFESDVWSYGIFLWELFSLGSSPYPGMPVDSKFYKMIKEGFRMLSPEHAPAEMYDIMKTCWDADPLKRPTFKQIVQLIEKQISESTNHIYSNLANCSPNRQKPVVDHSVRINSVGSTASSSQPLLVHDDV
Chain of Mast/stem cell growth factor receptor Kit (Homo sapiens), P10721 [UNDEFINED MUTATION] (P10721 whole entry, looked up, stated change not applied): as above
T1 sequence (P10721 whole entry, looked up, stated change not applied): as above
Chain of Mast/stem cell growth factor receptor Kit (Homo sapiens), P10721 [V559D] (P10721 whole entry V559D): as the sequence (P10721 whole entry, looked up, stated change not applied) above, with V559D counted along it
Chain of Mast/stem cell growth factor receptor Kit (Mus musculus) (P05532 whole entry): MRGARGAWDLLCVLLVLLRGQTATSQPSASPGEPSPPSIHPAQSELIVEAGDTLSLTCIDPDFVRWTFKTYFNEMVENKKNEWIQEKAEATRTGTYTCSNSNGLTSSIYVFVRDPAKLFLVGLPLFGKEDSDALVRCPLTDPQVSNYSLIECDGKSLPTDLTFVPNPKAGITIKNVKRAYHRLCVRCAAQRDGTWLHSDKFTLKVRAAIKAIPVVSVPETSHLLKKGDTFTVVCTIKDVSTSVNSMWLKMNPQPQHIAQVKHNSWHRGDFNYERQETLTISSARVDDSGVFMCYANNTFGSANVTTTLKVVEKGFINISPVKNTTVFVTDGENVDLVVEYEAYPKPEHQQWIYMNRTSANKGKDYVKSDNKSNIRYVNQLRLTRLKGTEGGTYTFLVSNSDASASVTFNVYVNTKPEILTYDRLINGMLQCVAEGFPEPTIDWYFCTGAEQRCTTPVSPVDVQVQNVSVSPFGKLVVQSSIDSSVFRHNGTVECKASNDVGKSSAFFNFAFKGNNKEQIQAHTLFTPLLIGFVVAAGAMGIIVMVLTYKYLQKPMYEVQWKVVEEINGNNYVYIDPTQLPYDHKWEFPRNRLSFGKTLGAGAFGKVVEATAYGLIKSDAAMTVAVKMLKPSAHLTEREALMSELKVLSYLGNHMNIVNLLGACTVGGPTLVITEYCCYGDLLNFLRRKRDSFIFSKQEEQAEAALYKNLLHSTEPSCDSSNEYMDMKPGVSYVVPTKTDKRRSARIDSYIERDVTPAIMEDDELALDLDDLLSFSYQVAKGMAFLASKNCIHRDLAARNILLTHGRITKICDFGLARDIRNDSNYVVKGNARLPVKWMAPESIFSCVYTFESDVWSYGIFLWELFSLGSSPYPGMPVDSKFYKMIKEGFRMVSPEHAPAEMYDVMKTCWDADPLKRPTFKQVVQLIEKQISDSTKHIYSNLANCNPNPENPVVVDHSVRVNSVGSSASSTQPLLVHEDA

- GI50 (Mus musculus [1]): 59 nM
- GI50 [2]: 18 nM
- GI50 [3]: 1 nM
- inhibition [4]: Active
- GI50 (Mus musculus [5]): 89 nM
- GI50 (Mus musculus [6]): 28 nM
- inhibition [8]: Active
- GI50 (Mus musculus [9]): 19 nM
- GI50 [10]: 93 nM
- GI50 [11]: 172 nM
- GI50 [14]: 3 nM
- GI50 [15]: 1720 nM
- GI50 (Mus musculus [16]): 389 nM
- inhibition [17]: Active
- GI50 [18]: 315 nM
- inhibition [19]: Active
- GI50 (Mus musculus [20]): 12 nM
- inhibition [21]: Active
SMILES: CCN(CC)CCNC(=O)c1c(C)[nH]c(/C=C2\C(=O)Nc3ccc(F)cc32)c1C [SUNITINIB]
- GI50 [7]: 740 nM
- GI50 at 72 h [12]: 1010 nM
- inhibition in vivo at 20 mg/kg/day (GISTT1 [13]): 93.6%
- inhibition in vivo at 40 mg/kg/day [22]: 96.7%

SMILES: COc1cc2nccc(Oc3ccc(NC(=O)Cc4ccc(Cl)c(C(F)(F)F)c4)cc3)c2cc1OC
- TGI (GISTT1 [23]; Homo sapiens, 40 mg/kg): Dose-dependent effect
- inhibition in vivo at 40 mg/kg/day (GISTT1 [23]; Mus musculus, GISTT1, po, 672 h, read-out: TGI): 76.4%
- GI50 (Mus musculus [1]): 16 nM
- EC50 [24]: < 100 nM
- EC50 [25]: < 100 nM
- bioavailability [26]: 50%
- Cmax [27]: 1390 ng/mL
- EC50 [28]: < 100 nM
- GI50 [2]: 22 nM
- GI50 [3]: 6 nM
- EC50 [29]: < 100 nM
- GI50 (Mus musculus [5]): 71 nM
- EC50 [30]: < 100 nM
- GI50 (Mus musculus [6]): 17 nM
- TGI (GISTT1 [31]): Dose-dependent effect
- GI50 [7]: 1370 nM
- GI50 (Mus musculus [9]): 42 nM
- inhibition in vivo at 80 mg/kg/day [32]: 92.7%
- IC50 [33]: 121 nM
- inhibition (Mus musculus [34]): Tde
- GI50 [10]: 1 nM
- EC50 [35]: < 100 nM
- TGI (Homo sapiens): Dose-dependent effect
- inhibition [36]: inactive
- GI50 [37]: 73 nM
- GI50 [11]: 3 nM
- GI50 [38]: 4 nM
- EC50 [39]: < 100 nM
- GI50 at 72 h [12]: 5970 nM
- TGI (GISTT1 [13]; Homo sapiens, 20 mg/kg): Dose-dependent effect
- inhibition in vivo at 20 mg/kg/day (GISTT1 [13]): 59.4%
- inhibition (Mus musculus [40]): inactive
- EC50 [41]: < 100 nM
- GI50 [42]: > 1000 nM
- inhibition (Mus musculus [43]): inactive
- GI50 [14]: 1 nM
- GI50 [15]: 1730 nM
- Activity [44]: 0.09 g
- GI50 (Mus musculus [16]): 9 nM
- GI50 [18]: 97 nM
- inhibition (Mus musculus [45]): inactive
- IC50 [46]: 8 nM
- GI50 (Mus musculus [20]): 45 nM
- Tmax [47]: 0 h
- EC50 [48]: < 100 nM
- TGI (Mus musculus [49]): Dose-dependent effect
- inhibition in vivo at 40 mg/kg/day [22]: 90.2%
